The source of these data is ChEMBL document CHEMBL2073749, “Rat organic anion transporter 3 (rOAT3) is responsible for brain-to-blood efflux of homovanillic acid at the abluminal membrane of brain capillary endothelial cells” (J Cereb Blood Flow Metab, 2003).

For data set [1], the target named is T1, Organic anion transporter 3 (OAT3) (Rattus norvegicus, UniProt Q9R1U7).
T1 sequence (Q9R1U7 whole entry): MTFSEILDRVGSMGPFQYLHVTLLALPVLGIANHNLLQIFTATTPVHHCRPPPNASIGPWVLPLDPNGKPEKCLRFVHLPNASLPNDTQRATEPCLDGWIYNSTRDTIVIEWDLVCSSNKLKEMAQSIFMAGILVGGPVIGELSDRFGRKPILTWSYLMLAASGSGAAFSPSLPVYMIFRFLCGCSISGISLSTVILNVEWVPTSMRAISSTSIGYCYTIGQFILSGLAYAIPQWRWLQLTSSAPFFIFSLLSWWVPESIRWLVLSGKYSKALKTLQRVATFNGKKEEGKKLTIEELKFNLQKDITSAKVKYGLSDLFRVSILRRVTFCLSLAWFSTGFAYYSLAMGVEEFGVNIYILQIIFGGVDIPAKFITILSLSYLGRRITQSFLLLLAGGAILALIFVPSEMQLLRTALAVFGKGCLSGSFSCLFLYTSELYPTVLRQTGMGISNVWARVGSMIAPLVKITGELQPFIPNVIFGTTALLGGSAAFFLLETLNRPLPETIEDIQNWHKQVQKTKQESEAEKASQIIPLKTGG
The data set is described as follows: TP_TRANSPORTER: inhibition of Homovanillic acid uptake (HVA: 0.2 uM, PAH: 1000 uM) in Xenopus laevis oocytes. The format is functional, cell-based, Oocyte. Set-up: scale not given: the % may be the effect or the level left. To be noted: Xenopus laevis oocytes (Organic anion transporter 3), probe Homovanillic acid (HVA), read-out: Activity.

Data set [2] addresses T1, Organic anion transporter 3 (OAT3). In words: TP_TRANSPORTER: inhibition of Homovanillic acid uptake (HVA: 0.2 uM, Baclofen: 1000 uM) in Xenopus laevis oocytes. The format is functional, cell-based, Oocyte. Set-up: scale not given: the % may be the effect or the level left. To be noted: Xenopus laevis oocytes (Organic anion transporter 3), probe Homovanillic acid (HVA), read-out: Activity.

The target is the same in data set [3]. The data set is described as follows: TP_TRANSPORTER: inhibition of Homovanillic acid uptake (HVA: 0.2 uM, 6-mercaptopurine: 1000 uM) in Xenopus laevis oocytes. It is filed as functional, cell-based, Oocyte. Set-up: scale not given: the % may be the effect or the level left. Conditions: Xenopus laevis oocytes (Organic anion transporter 3), probe Homovanillic acid (HVA), read-out: Activity.

The target is the same in data set [4]. In words: in vitro. Conditions: xenopus laevis, Xenopus laevis oocytes (Organic anion transporter 3), probe Homovanillic acid (HVA), 0.2 uM.
For data set [5] the target is unchanged. The data set is described as follows: TP_TRANSPORTER: inhibition of Homovanillic acid uptake (HVA: 0.2 uM, E1S; 1000 uM) in Xenopus laevis oocytes. Also noted: scale not given: the % may be the effect or the level left. To be noted: Xenopus laevis oocytes (Organic anion transporter 3), probe Homovanillic acid (HVA), read-out: Activity. The format is functional, cell-based, Oocyte.

The target is the same in data set [6]. In words: TP_TRANSPORTER: inhibition of Homovanillic acid uptake (HVA: 0.2 uM, Probenecid: 1000 uM) in Xenopus laevis oocytes. It is filed as functional, cell-based, Oocyte. Set-up: scale not given: the % may be the effect or the level left. Conditions: Xenopus laevis oocytes (Organic anion transporter 3), probe Homovanillic acid (HVA), read-out: Activity.

Data set [7] shares this target. In words: TP_TRANSPORTER: inhibition of Homovanillic acid uptake (HVA: 0.2 uM, Indomethacin: 1000 uM) in Xenopus laevis oocytes. It is filed as functional, cell-based, Oocyte. Set-up: scale not given: the % may be the effect or the level left. Conditions: Xenopus laevis oocytes (Organic anion transporter 3), probe Homovanillic acid (HVA), read-out: Activity.
For data set [8] the target is unchanged. The data set is described as follows: TP_TRANSPORTER: inhibition of Homovanillic acid uptake (HVA: 0.2 uM, PCG: 1000 uM) in Xenopus laevis oocytes. It is filed as functional, cell-based, Oocyte. Set-up: scale not given: the % may be the effect or the level left. To be noted: Xenopus laevis oocytes (Organic anion transporter 3), probe Homovanillic acid (HVA), read-out: Activity.

Substrate in data set [9]: COc1cc(CC(=O)O)ccc1O
In words: TP_TRANSPORTER: uptake in Xenopus laevis oocytes. The format is functional, cell-based, Oocyte.

Turning to `Nc1ccc(C(=O)NCC(=O)O)cc1` [AMINOHIPPURIC ACID], the activity at 1000 µM in data set [1] was determined as 20.3%. Regarding `NCC(CC(=O)O)c1ccc(Cl)cc1` (centres undefined) [BACLOFEN], in [2], the activity at 1000 µM was 23.2%. Regarding `Sc1ncnc2nc[nH]c12` [MERCAPTOPURINE ANHYDROUS], the activity at 1000 µM in data set [3] amounted to 8.67%. `CN/C(=N/CCSCc1nc[nH]c1C)NC#N` [CIMETIDINE] gave an activity at 1000 µM in [4] of 24.5%. Take `C[C@]12CC[C@@H]3c4ccc(OS(=O)(=O)O)cc4CC[C@H]3[C@@H]1CCC2=O` [ESTRONE SULFURIC ACID]: in data set [5], the activity at 1000 µM is 4.35%. Regarding `CCCN(CCC)S(=O)(=O)c1ccc(C(=O)O)cc1` [PROBENECID], the activity at 1000 µM in data set [6] was 23.4%.

Take `COc1ccc2c(c1)c(CC(=O)O)c(C)n2C(=O)c1ccc(Cl)cc1` [INDOMETHACIN]: the activity at 1000 µM in [7] came out at 40.9%. `CC1(C)S[C@@H]2[C@H](NC(=O)Cc3ccccc3)C(=O)N2[C@H]1C(=O)O` [PENICILLIN G]: the activity at 1000 µM in [8] came to 1.01%.

B1: Organic anion transporter 3 (Rattus norvegicus) (protein)
chain: MTFSEILDRVGSMGPFQYLHVTLLALPVLGIANHNLLQIFTATTPVHHCRPPPNASIGPWVLPLDPNGKPEKCLRFVHLPNASLPNDTQRATEPCLDGWIYNSTRDTIVIEWDLVCSSNKLKEMAQSIFMAGILVGGPVIGELSDRFGRKPILTWSYLMLAASGSGAAFSPSLPVYMIFRFLCGCSISGISLSTVILNVEWVPTSMRAISSTSIGYCYTIGQFILSGLAYAIPQWRWLQLTSSAPFFIFSLLSWWVPESIRWLVLSGKYSKALKTLQRVATFNGKKEEGKKLTIEELKFNLQKDITSAKVKYGLSDLFRVSILRRVTFCLSLAWFSTGFAYYSLAMGVEEFGVNIYILQIIFGGVDIPAKFITILSLSYLGRRITQSFLLLLAGGAILALIFVPSEMQLLRTALAVFGKGCLSGSFSCLFLYTSELYPTVLRQTGMGISNVWARVGSMIAPLVKITGELQPFIPNVIFGTTALLGGSAAFFLLETLNRPLPETIEDIQNWHKQVQKTKQESEAEKASQIIPLKTGG
By Km is commonly meant the substrate concentration at which the rate is half of its maximum. B1: the Km in data set [9] was determined as 274 µM.
